Experimental data from ChEMBL document CHEMBL4359816, “Discovery and Optimization of Quinolinone Derivatives as Potent, Selective, and Orally Bioavailable Mutant Isocitrate Dehydrogenase 1 (mIDH1) Inhibitors” (J Med Chem, 2019).
≈ marks a conversion by molar mass, not a printed value.

Experiments:
[1] = tested on: MDR1 (P-gp); experiment: Apparent permeability from apical side to basolateral side in MDCK cells harboring MDR1 (unknown origin); assay type: ADME, cell-based, Canis lupus familiaris; settings: dog
[2] = tested on: Mus musculus; experiment: In vivo inhibition of IDH1 R132C mutant in human HCT116 cells xenografted in po dosed BALB/c nude mouse assessed as reduction in tumor 2-HG level administered at 12 hrs intervals and measured up to 24 hrs post last dose by LC-MS analysis; assay type: functional
[3] = target: ATP-dependent translocase ABCB1 (Homo sapiens, UniProt P08183); experiment: Substrate activity at Pgp (unknown origin) assessed as net efflux ratio by measuring ratio of efflux ratio in MDCK cells harboring MDR1 (unknown origin) to efflux ratio in MDCK cells; assay type: ADME, cell-based
Chain of ATP-dependent translocase ABCB1 (P08183 whole entry): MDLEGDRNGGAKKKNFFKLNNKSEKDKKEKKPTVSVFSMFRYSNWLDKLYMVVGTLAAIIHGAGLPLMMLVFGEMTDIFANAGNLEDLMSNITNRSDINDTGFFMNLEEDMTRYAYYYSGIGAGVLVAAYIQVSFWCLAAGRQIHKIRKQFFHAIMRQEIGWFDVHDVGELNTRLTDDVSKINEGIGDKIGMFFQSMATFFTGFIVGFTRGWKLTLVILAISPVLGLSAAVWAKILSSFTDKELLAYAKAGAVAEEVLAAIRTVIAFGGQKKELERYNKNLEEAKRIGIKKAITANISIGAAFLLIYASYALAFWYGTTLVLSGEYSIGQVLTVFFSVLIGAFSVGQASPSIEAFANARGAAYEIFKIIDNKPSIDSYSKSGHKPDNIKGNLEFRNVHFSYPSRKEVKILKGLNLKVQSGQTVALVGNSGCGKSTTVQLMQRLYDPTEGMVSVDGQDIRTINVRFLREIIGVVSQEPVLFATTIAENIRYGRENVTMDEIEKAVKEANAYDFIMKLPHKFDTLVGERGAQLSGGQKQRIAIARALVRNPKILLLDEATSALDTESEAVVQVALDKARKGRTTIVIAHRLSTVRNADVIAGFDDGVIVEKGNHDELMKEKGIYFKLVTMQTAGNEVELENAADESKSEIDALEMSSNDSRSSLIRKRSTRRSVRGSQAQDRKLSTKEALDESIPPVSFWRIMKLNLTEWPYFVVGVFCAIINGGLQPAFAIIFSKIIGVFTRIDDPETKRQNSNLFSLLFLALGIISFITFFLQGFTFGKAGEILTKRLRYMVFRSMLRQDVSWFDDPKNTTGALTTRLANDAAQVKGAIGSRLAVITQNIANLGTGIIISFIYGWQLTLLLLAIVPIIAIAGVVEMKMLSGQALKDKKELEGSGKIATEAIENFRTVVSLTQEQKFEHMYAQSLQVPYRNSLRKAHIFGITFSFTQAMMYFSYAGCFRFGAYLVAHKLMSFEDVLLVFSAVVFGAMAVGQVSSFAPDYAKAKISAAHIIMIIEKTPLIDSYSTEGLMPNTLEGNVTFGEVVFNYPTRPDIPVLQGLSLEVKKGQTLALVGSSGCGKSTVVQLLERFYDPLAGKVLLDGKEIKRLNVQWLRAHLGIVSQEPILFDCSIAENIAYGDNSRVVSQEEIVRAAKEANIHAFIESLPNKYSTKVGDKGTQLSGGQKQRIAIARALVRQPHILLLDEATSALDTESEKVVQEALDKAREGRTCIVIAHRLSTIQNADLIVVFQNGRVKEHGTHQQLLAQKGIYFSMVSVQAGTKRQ

[4] = Apparent permeability from basolateral side to apical side in MDCK cells; assay type: ADME, cell-based, Canis lupus familiaris; settings: dog
[5] = target: T1, Isocitrate dehydrogenase [NADP] cytoplasmic (Homo sapiens, UniProt O75874, R132C); experiment: Inhibition of human Myc-DDK-tagged IDH1 R132C mutant expressed in human U87MG cells assessed as reduction in 2-HG levels after 24 hrs by RapidFire high-throughput mass spectrometry assay; assay type: cell-based
T1 sequence (O75874 2-414 R132C limits assumed): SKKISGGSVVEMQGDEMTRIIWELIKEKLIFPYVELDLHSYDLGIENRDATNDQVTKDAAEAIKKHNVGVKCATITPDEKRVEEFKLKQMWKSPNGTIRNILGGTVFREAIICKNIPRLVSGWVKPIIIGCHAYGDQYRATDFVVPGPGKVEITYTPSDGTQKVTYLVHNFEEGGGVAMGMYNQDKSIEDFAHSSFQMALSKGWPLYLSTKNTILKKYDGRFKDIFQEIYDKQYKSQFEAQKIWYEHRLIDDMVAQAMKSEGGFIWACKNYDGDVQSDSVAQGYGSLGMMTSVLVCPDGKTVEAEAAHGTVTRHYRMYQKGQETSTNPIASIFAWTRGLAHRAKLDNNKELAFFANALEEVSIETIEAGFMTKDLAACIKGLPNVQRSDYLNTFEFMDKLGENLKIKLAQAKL

[6] = target: CYP2D6 (Homo sapiens, UniProt P10635); experiment: Inhibition of CYP2D6 (unknown origin) at 10 uM relative to control; assay type: ADME
[7] = target: Voltage-gated inwardly rectifying potassium channel KCNH2 (Homo sapiens, UniProt Q12809); experiment: Inhibition of human ERG by patch clamp method
Chain of Voltage-gated inwardly rectifying potassium channel KCNH2 (Q12809 whole entry): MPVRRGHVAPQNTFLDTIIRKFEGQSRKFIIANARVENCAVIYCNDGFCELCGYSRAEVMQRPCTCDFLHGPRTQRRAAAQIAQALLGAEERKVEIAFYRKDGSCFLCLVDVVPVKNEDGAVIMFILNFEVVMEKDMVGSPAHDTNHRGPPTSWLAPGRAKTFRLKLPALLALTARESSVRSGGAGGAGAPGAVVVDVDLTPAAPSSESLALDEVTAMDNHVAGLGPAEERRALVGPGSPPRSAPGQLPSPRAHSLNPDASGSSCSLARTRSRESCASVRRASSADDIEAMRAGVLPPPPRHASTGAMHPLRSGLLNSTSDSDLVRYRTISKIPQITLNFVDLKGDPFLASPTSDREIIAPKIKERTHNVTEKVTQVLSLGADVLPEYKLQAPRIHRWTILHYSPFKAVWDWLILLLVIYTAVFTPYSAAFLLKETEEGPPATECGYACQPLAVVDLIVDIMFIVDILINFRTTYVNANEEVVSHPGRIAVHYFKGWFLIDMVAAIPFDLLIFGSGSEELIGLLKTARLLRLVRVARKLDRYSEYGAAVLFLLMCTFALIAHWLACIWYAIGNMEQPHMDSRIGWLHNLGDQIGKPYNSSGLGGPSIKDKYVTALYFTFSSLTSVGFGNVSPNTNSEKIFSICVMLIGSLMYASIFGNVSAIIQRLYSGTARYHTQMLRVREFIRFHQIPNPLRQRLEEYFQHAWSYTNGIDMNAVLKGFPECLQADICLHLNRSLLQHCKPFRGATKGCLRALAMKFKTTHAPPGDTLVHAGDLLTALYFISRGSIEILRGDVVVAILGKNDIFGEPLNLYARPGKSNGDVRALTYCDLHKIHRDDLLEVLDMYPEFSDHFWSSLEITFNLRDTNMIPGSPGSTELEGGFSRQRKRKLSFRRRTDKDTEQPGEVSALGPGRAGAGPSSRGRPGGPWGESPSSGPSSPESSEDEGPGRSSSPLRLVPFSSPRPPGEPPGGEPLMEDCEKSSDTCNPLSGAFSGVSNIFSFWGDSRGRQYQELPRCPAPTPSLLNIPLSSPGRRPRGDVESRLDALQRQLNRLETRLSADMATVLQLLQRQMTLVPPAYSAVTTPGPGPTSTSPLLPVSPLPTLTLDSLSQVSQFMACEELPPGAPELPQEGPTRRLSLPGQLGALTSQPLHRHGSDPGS

[8] = fAUC (infinity) in rat at 1 mg/kg, iv or 5 mg/kg, po; assay type: ADME, organism-based; settings: in vivo
[9] = target: CYP1A2 (Homo sapiens, UniProt P05177); experiment: Inhibition of CYP1A2 (unknown origin) at 10 uM relative to control; assay type: ADME
[10] = species on record: Homo sapiens
[11] = tested on: Mus musculus; assay type: functional, BALB/c
[12] = target: CYP2C19 (Homo sapiens, UniProt P33261); experiment: Inhibition of CYP2C19 (unknown origin) at 10 uM relative to control; assay type: ADME
[13] = target: PXR (Homo sapiens, UniProt O75469); experiment: Activation of PXR (unknown origin) stably expressed in human HepG2 cells at 10 uM relative to rifampicin; assay type: ADME, cell-based; settings: HepG2 cells stably expressing PXR, read-out: Activity
Chain of PXR (O75469 whole entry): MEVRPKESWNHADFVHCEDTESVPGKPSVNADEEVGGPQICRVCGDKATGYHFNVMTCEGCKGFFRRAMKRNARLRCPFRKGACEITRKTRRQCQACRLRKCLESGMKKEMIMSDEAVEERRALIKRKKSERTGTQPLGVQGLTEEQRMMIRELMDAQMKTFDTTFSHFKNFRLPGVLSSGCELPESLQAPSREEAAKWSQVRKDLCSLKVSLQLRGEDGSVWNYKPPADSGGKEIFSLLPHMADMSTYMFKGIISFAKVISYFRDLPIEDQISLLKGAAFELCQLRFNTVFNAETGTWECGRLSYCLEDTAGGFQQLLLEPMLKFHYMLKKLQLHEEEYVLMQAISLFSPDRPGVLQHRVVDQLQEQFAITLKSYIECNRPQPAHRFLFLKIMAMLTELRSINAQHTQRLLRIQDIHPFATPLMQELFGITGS

[14] = Total AUC (infinity) in dog at 0.5 mg/kg, iv; assay type: ADME, organism-based, Canis lupus familiaris; parameters: dose 0.5 mg/kg, time AUCmax, route intravenous; settings: in vivo
[15] = Total Cmax in mouse at 1 mg/kg, iv or 5 mg/kg, po; assay type: ADME, organism-based; settings: in vivo
[16] = target: Isocitrate dehydrogenase [NADP] cytoplasmic (Homo sapiens, UniProt O75874, R132S); experiment: Inhibition of human Myc-DDK-tagged IDH1 R132S mutant expressed in human U87MG cells assessed as reduction in 2-HG levels after 24 hrs by RapidFire high-throughput mass spectrometry assay; assay type: cell-based
Chain of Isocitrate dehydrogenase [NADP] cytoplasmic (Homo sapiens, UniProt O75874, R132S) (O75874 2-414 R132S limits assumed): as the sequence (O75874 2-414 R132C limits assumed) above, with C131S counted along it

[17] = Apparent permeability from apical side to basolateral side in MDCK cells; assay type: ADME, cell-based, Canis lupus familiaris; settings: dog
[18] = target: alpha1 adrenergic receptor (Homo sapiens, UniProt P35348); experiment: Displacement of [3H] prazosin from human alpha1 adrenergic receptor at 1 uM measured after 60 mins by scintillation counting method relative to control; settings: probe [3H] prazosin
Chain of alpha1 adrenergic receptor (P35348 whole entry): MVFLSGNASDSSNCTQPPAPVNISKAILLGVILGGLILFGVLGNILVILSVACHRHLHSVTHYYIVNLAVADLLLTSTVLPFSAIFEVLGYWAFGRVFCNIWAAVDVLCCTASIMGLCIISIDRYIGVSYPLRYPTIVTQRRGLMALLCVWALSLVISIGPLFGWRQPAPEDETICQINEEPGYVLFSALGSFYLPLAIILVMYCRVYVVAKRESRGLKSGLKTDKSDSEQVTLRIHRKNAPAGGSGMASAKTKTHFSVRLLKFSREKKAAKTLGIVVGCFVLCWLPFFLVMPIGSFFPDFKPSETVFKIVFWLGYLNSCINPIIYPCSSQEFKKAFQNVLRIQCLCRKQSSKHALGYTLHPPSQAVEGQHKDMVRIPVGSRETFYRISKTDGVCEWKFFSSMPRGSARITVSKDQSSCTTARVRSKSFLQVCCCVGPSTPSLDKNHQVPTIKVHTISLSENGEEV

[19] = target: T2, Cytochrome P450 3A4 (Homo sapiens, UniProt P08684); experiment: Time dependent inhibition of CYP3A4 (unknown origin) at <5 uM using midazolam as substrate; assay type: ADME
T2 sequence (P08684 whole entry): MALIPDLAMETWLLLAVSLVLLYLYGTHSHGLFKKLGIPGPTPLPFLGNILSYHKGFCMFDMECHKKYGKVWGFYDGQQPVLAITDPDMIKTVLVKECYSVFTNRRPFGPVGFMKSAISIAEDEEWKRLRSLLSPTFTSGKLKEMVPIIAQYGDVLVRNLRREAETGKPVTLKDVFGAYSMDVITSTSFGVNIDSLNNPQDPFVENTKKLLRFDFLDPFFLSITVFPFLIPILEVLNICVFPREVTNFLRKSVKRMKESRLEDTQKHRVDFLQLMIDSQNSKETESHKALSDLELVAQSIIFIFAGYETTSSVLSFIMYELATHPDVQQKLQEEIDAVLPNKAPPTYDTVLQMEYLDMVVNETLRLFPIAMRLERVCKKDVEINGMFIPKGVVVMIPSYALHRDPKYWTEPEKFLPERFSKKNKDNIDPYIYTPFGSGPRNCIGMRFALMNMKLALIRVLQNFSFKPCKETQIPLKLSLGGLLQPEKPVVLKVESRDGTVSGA

[20] = tested on: Mus musculus; experiment: In vivo inhibition of IDH1 R132C mutant in human HCT116 cells xenografted in BALB/c nude mouse assessed as reduction in tumor 2-HG level at 25 mg/kg, po bid administered at 12 hrs intervals and measured at <= 12 hrs post last dose by LC-MS analysis relative to control; assay type: functional; settings: HCT-116, po
[21] = Half-life in human hepatocytes; assay type: ADME, cell-based, Hepatocyte
[22] = tested on: Mus musculus; assay type: functional; settings: BALB/c, HCT-116, po
[23] = tested on: MDR1 (P-gp); experiment: Efflux ratio of apparent permeability from basolateral side to apical side over apical side to basolateral side in MDCK cells harboring MDR1 (unknown origin); assay type: ADME, cell-based, Canis lupus familiaris; settings: dog
[24] = target: T2, Cytochrome P450 3A4; experiment: Time dependent inhibition of CYP3A4 (unknown origin) at <5 uM pre-incubated for 30 mins followed by midazolam substrate addition in presence of NADPH; assay type: ADME
[25] = Total AUC (infinity) in rat at 1 mg/kg, iv or 5 mg/kg, po; assay type: ADME, organism-based; settings: in vivo
[26] = Total AUC (infinity) in mouse at 1 mg/kg, iv or 5 mg/kg, po; assay type: ADME, organism-based; settings: in vivo
[27] = Efflux ratio of apparent permeability from basolateral side to apical side over apical side to basolateral side in MDCK cells; assay type: ADME, cell-based, Canis lupus familiaris; settings: dog
[28] = target: T1, Isocitrate dehydrogenase [NADP] cytoplasmic; experiment: Inhibition of human Myc-DDK-tagged IDH1 R132C mutant assessed as reduction in NADPH consumption pre-incubated for 15 mins followed by alpha-ketoglutarate substrate and NADPH addition after 45 mins by diaphorase and resazurin dye based assay
[29] = Intrinsic clearance in human hepatocytes; assay type: ADME, cell-based, Hepatocyte; settings: read-out: CLH
[30] = Protein binding in rat plasma; assay type: ADME, cell-free; settings: read-out: PPB (converted)
[31] = target: NET (noradrenaline transporter) (Homo sapiens, UniProt P23975); experiment: Displacement of [3H]nisoxetine from recombinant human NET receptor at 10 uM after 120 mins by scintillation counting method relative to control; settings: probe [3H]nisoxetine
Chain of NET (noradrenaline transporter) (P23975 whole entry): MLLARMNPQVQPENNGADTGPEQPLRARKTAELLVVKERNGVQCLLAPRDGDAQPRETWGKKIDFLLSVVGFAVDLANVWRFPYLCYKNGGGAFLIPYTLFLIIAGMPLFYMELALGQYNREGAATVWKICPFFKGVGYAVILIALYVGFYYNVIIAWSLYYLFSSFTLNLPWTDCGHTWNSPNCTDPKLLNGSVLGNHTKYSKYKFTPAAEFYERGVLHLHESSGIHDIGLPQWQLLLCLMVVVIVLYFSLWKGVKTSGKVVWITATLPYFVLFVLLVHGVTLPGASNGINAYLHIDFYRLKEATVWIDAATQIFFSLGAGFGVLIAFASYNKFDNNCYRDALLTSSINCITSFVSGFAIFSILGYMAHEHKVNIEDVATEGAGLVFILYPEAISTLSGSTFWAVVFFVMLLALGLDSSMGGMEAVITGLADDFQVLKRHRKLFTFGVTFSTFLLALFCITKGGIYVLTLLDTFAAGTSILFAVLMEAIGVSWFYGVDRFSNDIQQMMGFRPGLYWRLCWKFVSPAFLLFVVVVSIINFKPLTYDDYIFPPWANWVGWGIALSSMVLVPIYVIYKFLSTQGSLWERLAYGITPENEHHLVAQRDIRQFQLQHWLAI

[32] = Clearance in dog at 0.5 mg/kg, iv; assay type: ADME, organism-based, Canis lupus familiaris; settings: in vivo
[33] = target: Isocitrate dehydrogenase [NADP], mitochondrial (Homo sapiens, UniProt P48735, R140Q); experiment: Inhibition of IDH2 R140Q mutant (unknown origin)
[34] = target: T2, Cytochrome P450 3A4; experiment: Time dependent inhibition of CYP3A4 (unknown origin) at <5 uM pre-incubated for 30 mins followed by testosterone substrate addition in presence of NADPH; assay type: ADME
[35] = Kinetic solubility of the compound; assay type: physicochemical; settings: read-out: Kinetic_solubility
[36] = Metabolic stability in dog liver microsomes assessed as compound remaining after 30 mins; assay type: ADME, Canis lupus familiaris, Microsome; settings: read-out: Stability
[37] = Half-life in dog at 0.5 mg/kg, iv; assay type: ADME, organism-based, Canis lupus familiaris; settings: in vivo
[38] = target: CYP2C9 (Homo sapiens, UniProt P11712); experiment: Inhibition of CYP2C9 (unknown origin) at 10 uM relative to control; assay type: ADME
[39] = Protein binding in mouse plasma; assay type: ADME, cell-free; settings: read-out: PPB (converted)
[40] = target: T2, Cytochrome P450 3A4; experiment: Time dependent inhibition of CYP3A4 (unknown origin) at <5 uM pre-incubated for 30 mins followed by testosterone substrate addition in absence of NADPH; assay type: ADME
[41] = target: Isocitrate dehydrogenase [NADP] cytoplasmic (Homo sapiens, UniProt O75874, R132L); experiment: Inhibition of human Myc-DDK-tagged IDH1 R132L mutant expressed in human U87MG cells assessed as reduction in 2-HG levels after 24 hrs by RapidFire high-throughput mass spectrometry assay; assay type: cell-based
Chain of Isocitrate dehydrogenase [NADP] cytoplasmic (Homo sapiens, UniProt O75874, R132L) (O75874 2-414 R132L limits assumed): as the sequence (O75874 2-414 R132C limits assumed) above, with C131L counted along it

[42] = target: T2, Cytochrome P450 3A4; experiment: Time dependent inhibition of CYP3A4 (unknown origin) at <5 uM pre-incubated for 30 mins followed by midazolam substrate addition in absence of NADPH; assay type: ADME
[43] = Half-life in rat at 1 mg/kg, iv or 5 mg/kg, po; assay type: ADME, organism-based; settings: in vivo
[44] = Free drug concentration in tumor of human HCT116 harboring R132C mutant xenografted in po dosed BALB/c nude mouse administered at 12 hrs intervals and measured after 4 to 24 hrs post last dose; assay type: ADME, organism-based, Neoplasm; settings: in vivo

Papp A→B [1]: 8.35 ×10⁻⁶ cm/s
Ratio [3]: 1.89
Papp B→A [4]: 7.97 ×10⁻⁶ cm/s
IC50 [5]: 130 nM
inhibition at 10 µM [6]: 10.2%
fAUC [8]: 0.459 µM·h
inhibition at 10 µM [9]: 35.4%
Ratio IC50 [10]: 200
inhibition at 10 µM [12]: 22.7%
activity at 10 µM [13]: 15%
AUC(0-inf) [14]: 3.3 µM·h
Cmax [15]: 5.9 µM
IC50 [16]: 1490 nM
Papp A→B [17]: 12.6 ×10⁻⁶ cm/s
inhibition at 1 h, 1 µM [18]: > 50%
TDI [19]: Not Active
half-life [21]: 259 min
efflux ratio [23]: 1.19
TDI [24]: Not Active
AUC(0-inf) [25]: 22.6 µM·h
AUC(0-inf) [26]: 107 µM·h
efflux ratio [27]: 0.63
IC50 [28]: 130 nM
CLint scaled [29]: 13.7 mL/min/kg
fraction unbound [30]: 0.0203
inhibition at 2 h, 10 µM [31]: > 50%
clearance [32]: 7.7 mL/min/kg
IC50 [33]: 76.6 µM
TDI [34]: Not Active
solubility kinetic [35]: 10.5 µM (≈ 3.74 µg/mL)
remaining at 0.5 h [36]: 94%
half-life [37]: 312 min
inhibition at 10 µM [38]: 13.6%
fraction unbound [39]: 0.0193
TDI [40]: Not Active
IC50 [41]: 60 nM
TDI [42]: Not Active
half-life [43]: 132 min
Drug uptake(free) [44]: Dose-dependent effect
SMILES: COc1nc(N[C@@H](C)c2cc3cc(Cl)ccc3[nH]c2=O)ncc1C#N
fIC50 [2]: 46 nM
IC50 [7]: 3.2 µM
fIC50 [11]: 49 nM
inhibition in vivo at 25 mg/kg [20]: > 90%
inhibition in vivo at 12.5 mg/kg [22]: > 90%
